The subject of one experiment is GRP78 and IRE-1. Kind of experiment: ER stress markers GRP78 and IRE-1 expression. As to conditions: for MCPIP-induced expression of GRP78: autophagy inhibition, MCPIP-transfected BMCs; for expression of ER stress markers GRP78 and IRE-1: substance alone; for MCPIP-induced expression of GRP78 and IRE-1: pretreatment prior to MCPIP transfection, immunoblot. It counts as cell-based, human. The protocol:
(§1) BMCs were cultured in α-MEM supplemented with 10% FBS containing 30 ng/ml M-CSF, 100 U/ml penicillin, and 100 μg/ml streptomycin in 5% CO2 at 37° C. OC precursor cells were induced after 3-day culture as Ha et al. (2010). At this point, cells were treated with 50 ng/ml MCP-1, inhibitors, or gene transfection. For inhibitor treatment, CeO2 (10 μM), apocynin (100 μg/ml), TUDC (100 μM), 3′-MA (50 μM), and LY294002 (20 μM) were added 6 h before gene transfection.
(§2) OC precursor cells were transfected with 1 μg GFP or MCPIP-GFP eukaryotic expression plasmids for gene-gain-function assay by using Fugene 6. For gene silencing, chemically synthesized siRNA duplex (100 nM) targeting MCPIP, IRE-1, or Beclin-1 was transfected into OC precursor cells using DharmaFECT (Dharmacon) for 24 h prior to transfection with MCPIP-GFP or GFP plasmid. A scrambled siRNA was used as a negative control. For knockdown expression of p47^PHOX, specific antisense (AS) (5′-[…]-3′ (SEQ ID NO: 5)) and sense (5′-[…]-3′ (SEQ ID NO: 6)) oligonucleotides were designed and synthesized by phosphorothioate modification by Integrated DNA Technologies. The oligonucleotides were transfected into OC precursor cells using Lipofectamine 2000 for 24 h before MCPIP-GFP plasmid transfection.
(§3) Cells were centrifuged after wash with PBS for twice. Cell pellet was resuspended in 1 ml Trizol reagent and the total RNA was extracted with chloroform and isopropanol, purified on Qiagen Mini-Prep column, and treated with DNase. High Capacity cDNA Reverse Transcription kit (Applied Biosystems) was used for cDNA preparation from 1 μg total RNA. qRT-PCR was done in triplicate in an ABI PRISM 7900HT Sequence Detection System with 5% cDNA product, primers (Supplementary Table S1) at 125 nM, and Fast SYBR Green Master Mix (Applied Biosystems). Relative quantitation of PCR products was done by the 2^−ΔΔCT method, CT=cycles to threshold, and ^ΔΔCT=(target gene CT)−(β-actin reference gene CT). Final data were described as fold changes against control cells.
(§4) Sodium dodecyl sulfate-polyacrylamide gel electrophoresis (SDS-PAGE) and western blotting were performed as described elsewhere. Samples (30 μg of protein) were subjected to 12% SDS-PAGE for most of target protein and 18% SDS-PAGE for LC3-II and LC3, transferred onto PVDF membranes (Millipore), and assayed for MCPIP, p47^PHOX, TRAP, CTSK, GRP78, IRE-1, Beclin-1, LC3-II, and β-actin or Fas (loading control) protein expression by chemiluminescence detection (Pierce ECL kit) according to the manufacturer's instructions. The specific protein bands were quantified by densitometric analysis with GS-690 Image Densitometer (Bio-Rad).

Experiment [1] has as its system TRAP and CTSK expression in BMCs. Kind of experiment: Expression of OC markers TRAP and CTSK (immunoblot, real-time PCR). It counts as cell-based, human. As to conditions: for expression of TRAP and CTSK: substance alone, no other inducer, protein and mRNA; for MCPIP-induced expression of TRAP and CTSK: MCPIP-transfected BMCs, inhibitors 6 h (CeO2 10 μM, apocynin 100 μg/ml, TUDC 100 μM, 3′-MA 50 μM, LY294002 20 μM) or siRNA/antisense 24 h before transfection. How it is done:
as §1, §2, §3, §4

The next experiment deals with Beclin-1, LC3, Atg7. The experiment can be described thus: Autophagy markers (Beclin-1, LC3 lipidation, Atg7) expression. It counts as cell-based, human. As to conditions: MCPIP-transfected BMCs. How it is done: as §1, §2, §3, §4
Another experiment deals with MCPIP. The experiment can be described thus: MCPIP expression (immunoblot, real-time PCR). Format: cell-based, human. How it is done:
as §1
(§5) OC precursor cells were transfected with 1 μg GFP or MCPIP-GFP eukaryotic expression plasmids for gene-gain-function assay by using Fugene 6. For gene silencing, chemically synthesized siRNA duplex (100 nM) targeting MCPIP, IRE-1, or Beclin-1 was transfected into OC precursor cells using DharmaFECT (Dharmacon) for 24 h prior to transfection with MCPIP-GFP or GFP plasmid. A scrambled siRNA was used as a negative control. […]
(§6) Cells were centrifuged after wash with PBS for twice. […] Relative quantitation of PCR products was done by the 2^−ΔΔCT method, CT=cycles to threshold, and ^ΔΔCT=(target gene CT)−(β-actin reference gene CT). […]
(§7) Sodium dodecyl sulfate-polyacrylamide gel electrophoresis (SDS-PAGE) and western blotting were performed as described elsewhere. […] The specific protein bands were quantified by densitometric analysis with GS-690 Image Densitometer (Bio-Rad).

For another experiment, the system named is ROS production in BMCs. The experiment can be described thus: ROS production (DHR123 oxidation). Format: cell-based, human. How it is done:
as §1
as §2, with “The oligonucleotides were transfected into OC precursor cells using Lipofectamine 2000 for 24 h before MCPIP-GFP plasmid transfection.” left out
Oxidant production in OC precursor cells was assessed by measuring the oxidation of intracellular DHR123 (Molecular Probes) as described previously (Younce et al., 2010). ROS production was expressed as folds compared with control cells expressing GFP alone.

Another experiment has as its system p47PHOX. Kind of experiment: p47PHOX expression and membrane translocation (immunoblot). It counts as cell-based, human. How it is done:
as §1
OC precursor cells were transfected with 1 μg GFP or MCPIP-GFP eukaryotic expression plasmids for gene-gain-function assay by using Fugene 6. […]
OC precursor cells were harvested, sonicated on ice in a buffer containing 100 mM KCl, 3 mM NaCl, 3.5 mM MgCl2, 10 mM HEPES, 1 mM EGTA, 10 μg/ml pepstatin, 10 μg/ml leupeptin, and 0.5 mM PMSF; lysates were centrifuged at 600 g for 10 min at 4° C. to remove nuclei and unbroken cells. […] Membranes were washed in the same buffer, quantified (Lemarie), and resuspended in Laemmli sample buffer, before western blot analysis.
as §7

Experiment [2] deals with human bone marrow mononuclear cells (BMCs). The experiment can be described thus: TRAP staining, TRAP-positive OC precursor cell formation. As to conditions: substance alone, 50 ng/ml MCP-1, human BMCs. Format: cell-based. The protocol: as §1, §5
Three days after MCP-1 treatment or 4 days after MCPIP transfection, cells were fixed for histological staining for TRAP as described previously (Kim et al., 2006a). […] On each coverslip, totally at least 500 cells were examined and the TRAP-positive cells were counted in 3-5 fields (20× objective), and the percentage of TRAP-positive cells was calculated.

The subject of experiment [3] is αV integrin, β3 integrin, and MMP9. The experiment can be described thus: Expression of OC functional markers αV integrin, β3 integrin, MMP9. Format: cell-based, human. As to conditions: substance alone. The protocol: as §1, §5, §6, §7
[4] abbreviates: pretreatment prior to MCPIP transfection.

Take `O=c1cc(N2CCOCC2)oc2c(-c3ccccc3)cccc12` [LY294002]: the “MCPIP-induced expression of GRP78” value with GRP78 and IRE-1 is “no effect”.

On to `C/C=C(/C)C(=O)O[C@H]1C(C)=C2[C@H]([C@@H]1OC(=O)CCCCCCC)[C@@](C)(OC(C)=O)C[C@H](OC(=O)CCC)[C@@]1(O)[C@H]2OC(=O)[C@@]1(C)O` [thapsigargin], for which the “expression of TRAP and CTSK” value in experiment [1] is recorded as “induced”. In addition, the “expression of ER stress markers GRP78 and IRE-1” value with GRP78 and IRE-1 was “induced”.

Consider `C[C@H](CCC(=O)NCCS(=O)(=O)O)[C@H]1CC[C@H]2[C@@H]3[C@@H](O)C[C@@H]4C[C@H](O)CC[C@]4(C)[C@H]3CC[C@]12C` [TUDC, tauroursodeoxycholate], for which the “MCPIP-induced expression of TRAP and CTSK” value in experiment [1] is “significantly inhibited”. The “MCPIP-induced expression of GRP78 and IRE-1” value in the experiment on GRP78 and IRE-1 is “inhibits”. In addition, the “MCPIP-induced expression of Beclin-1” value in the experiment on Beclin-1, LC3, Atg7 is listed as “inhibited significantly”. In the experiment on MCPIP (MCPIP-transfected BMCs), the “expression of MCPIP after MCPIP transfection” value is “did not affect”.

`COc1cc(C(C)=O)ccc1O` [apocynin]: the “MCPIP-induced expression of TRAP and CTSK” value in experiment [1] was “suppressed”. The “MCPIP-induced ROS production” value in the experiment with ROS production in BMCs (setting [4]) was “suppressed”. In addition, the “MCPIP-induced expression and membrane translocation of p47PHOX” value in the experiment on p47PHOX (setting [4]) is recorded as “inhibited”. For the same compound, the “MCPIP-induced expression of GRP78 and IRE-1” value in the experiment with GRP78 and IRE-1 is listed as “attenuated”. Further, in the experiment with Beclin-1, LC3, Atg7, the “MCPIP-induced expression of Beclin-1” value is listed as “inhibited significantly”.

With tunicamycin, the “expression of TRAP and CTSK” value in experiment [1] is recorded as “induced”. In addition, the “expression of ER stress markers GRP78 and IRE-1” value in the experiment with GRP78 and IRE-1 is “induced”.

`Cn1cnc(N)c2ncnc1-2` [3′-MA, 3′-methyladenine]: the “MCPIP-induced expression of TRAP and CTSK” value in experiment [1] is reported as “significantly inhibited”. In addition, the “MCPIP-induced expression of GRP78” value with GRP78 and IRE-1 was “no effect”. Besides, in the experiment on Beclin-1, LC3, Atg7, the “MCPIP-induced expression of Beclin-1” value is on record as “significantly inhibited”. Also, the “lipidation of LC-3” value with Beclin-1, LC3, Atg7 (immunoblot) was “inhibited”.

On to “MCP-1: human MCP-1, a CC chemokine, purchased from Invitrogen”, for which the “TRAP-positive OC precursor cell formation” value in experiment [2] is “induced”. Moreover, the “expression of TRAP and CTSK” value in experiment [1] is “induced”. Besides, the ROS generation entry in the experiment on ROS production in BMCs (substance alone, DHR123 staining) is “remarkably increased”. The “expression of p47PHOX and its translocation from the cytoplasm into the membrane” value with p47PHOX (substance alone) is given as “increased”. In addition, the “expression of ER stress markers GRP78 and IRE-1” value with GRP78 and IRE-1 is recorded as “induced”. Besides, the “expression of αV integrin, β3 integrin, and MMP9” value in experiment [3] was “did not affect”. In the experiment with MCPIP (substance alone, 50 ng/ml MCP-1), the “MCPIP protein and mRNA levels” value is recorded as “induced up-regulation”.

Source of the values: patent US9469853B2, “MCPIP protection against osteoclast production” (University of Central Florida Research Foundation, Inc., priority 2005, dated 2016).
